Measurements reported in the NIST ThermoML archive (doi:10.1016/j.jct.2011.11.027).
± gives the expanded uncertainty stated by the source. Values belong to the compound of their own block, whether it stands above or below them.

How the values were obtained:
[1] = 298.15 K; 101.33 kPa; Liquid; Vibrating tube method
[2] = refractive index (Na D-line) (dimensionless); details: 298.15 K; 101.33 kPa; Liquid; Standard Abbe refractometry
[3] = wn = mass fraction of the nth substance listed; details: 298.15 K, 101 kPa, Liquid, Vibrating tube method

SMILES: CCCC[N+]1(C)CCCC1.O=S(=O)([N-]S(=O)(=O)C(F)(F)F)C(F)(F)F
mass density [1]: 1394.66 ± 0.58 kg/m3 | refractive index [2]: 1.42302 ± 0.00042

SMILES: CCCC[N+]1(C)CCCC1.O=S(=O)([O-])C(F)(F)F [1-butyl-1-methylpyrrolidinium trifluoromethanesulfonate]
mass density [1]: 1252.71 ± 0.45 kg/m3 | refractive index [2]: 1.43287 ± 0.00042

mass density ([3]; w2 = 0): 773.88 ± 0.13 kg/m3 | mass density ([3]; w2 = 0.0503): 766.95 ± 0.14 kg/m3 | mass density ([3]; w2 = 0.0991): 760.53 ± 0.14 kg/m3 | mass density ([3]; w2 = 0.2021): 748.16 ± 0.14 kg/m3 | mass density ([3]; w2 = 0.3118): 735.69 ± 0.15 kg/m3 | mass density ([3]; w2 = 0.3926): 726.61 ± 0.15 kg/m3 | mass density ([3]; w2 = 0.5039): 717.21 ± 0.16 kg/m3 | mass density ([3]; w2 = 0.666): 703.79 ± 0.16 kg/m3 | mass density ([3]; w2 = 0.7062): 700.61 ± 0.17 kg/m3 | mass density ([3]; w2 = 0.8061): 692.71 ± 0.17 kg/m3 | mass density ([3]; w2 = 0.9061): 685.62 ± 0.18 kg/m3 | mass density ([3]; w2 = 0.9539): 682.6 ± 0.18 kg/m3
SMILES: C1CCCCC1 [cyclohexane] + CCCCCCC

mass density ([3]; w1 = 1): 679.57 ± 0.18 kg/m3
SMILES: CCCCCCC [heptane] + C1CCCCC1
